Test results reported in ChEMBL document CHEMBL1201862, “PubChem BioAssay data set” (2004).
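Exposure lasted 48 hours, with cells grown in 96-well plates and compounds tested at five concentrations. The concentration for 50% growth inhibition is given as GI50.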 The source made the active and inactive calls. Rule as the data show it: active = GI50 up to about 1.1 µM and inactive = higher.

Experiments:
Assay in all cases: growth of human tumour cells (NCI), 48 h
[1] = test system: HCT-15
[2] = test system: SW-620
[3] = test system: MCF7
[4] = test system: COLO 205
[5] = test system: EKVX
[6] = test system: OVCAR-5
[7] = test system: K562
[8] = test system: NCI-H226
[9] = test system: SR
[10] = test system: HOP-92
[11] = test system: CAKI-1
[12] = test system: SK-MEL-28
[13] = test system: Hs-578T
[14] = test system: M14
[15] = test system: RXF 393
[16] = test system: SF-539
[17] = test system: MDA-MB-231
[18] = test system: HCC 2998
[19] = test system: PC-3
[20] = test system: HL-60

Row | SMILES | GI50 [1] | GI50 [2] | GI50 [3] | GI50 [4] | GI50 [5] | GI50 [6] | GI50 [7] | GI50 [8] | GI50 [9] | GI50 [10] | GI50 [11] | GI50 [12] | GI50 [13] | GI50 [14] | GI50 [15] | GI50 [16] | GI50 [17] | GI50 [18] | GI50 [19] | GI50 [20]
1 | COc1cccc2nc3c(C(=O)NCCN(C)C)cccc3cc12 | 1.91 µM | 1.09 µM (active) | 1.12 µM (active) | 1.13 µM (inactive) | 2.38 µM (inactive) | 1.94 µM (inactive) | 1.95 µM (inactive) | 1.4 µM (inactive) | 0.42 µM (active) | 1.21 µM (inactive) | 0.619 µM (active) | 2.63 µM (inactive) | 1.82 µM (inactive) | 1.64 µM (inactive) | 3.94 µM (inactive) | 1.85 µM (inactive) | 2.37 µM (inactive) | 3.44 µM (inactive) | 2.34 µM (inactive) | 
2 | OC(CC(O)(C(F)(F)F)C(F)(F)F)C(O)c1ccco1 (stereo not drawn) | > 10 µM | > 10 µM (inactive) | > 10 µM (inactive) | > 10 µM (inactive) | > 10 µM (inactive) |  | > 10 µM (inactive) | > 10 µM (inactive) | > 10 µM (inactive) |  | > 10 µM (inactive) | > 10 µM (inactive) | > 10 µM (inactive) | > 10 µM (inactive) | > 10 µM (inactive) | > 10 µM (inactive) | > 10 µM (inactive) | > 10 µM (inactive) | > 10 µM (inactive) | > 10 µM (inactive)
3 | Nc1nc(=O)c(/N=N/c2ccccc2)c(C(=O)O)[nH]1 | 75.2 µM | > 100 µM (inactive) | 79.3 µM (inactive) | > 100 µM (inactive) | 23.3 µM (inactive) | > 100 µM (inactive) | 54.6 µM (inactive) | > 100 µM (inactive) | 35.3 µM (inactive) | > 100 µM (inactive) | > 100 µM (inactive) | > 100 µM (inactive) | > 100 µM (inactive) | > 100 µM (inactive) | > 100 µM (inactive) | > 100 µM (inactive) | > 100 µM (inactive) |  | > 100 µM (inactive) | 37.9 µM (inactive)
4 | N#CCCN(CCC#N)c1ccc(C(/N=N/c2ccccc2)=N\c2ccccc2)cc1 | > 100 µM | > 100 µM (inactive) | > 100 µM (inactive) | > 100 µM (inactive) | > 100 µM (inactive) | > 100 µM (inactive) | > 100 µM (inactive) | > 100 µM (inactive) | > 100 µM (inactive) | > 100 µM (inactive) | > 100 µM (inactive) | > 100 µM (inactive) | > 100 µM (inactive) | > 100 µM (inactive) | > 100 µM (inactive) | > 100 µM (inactive) | > 100 µM (inactive) | > 100 µM (inactive) | > 100 µM (inactive) | 
5 | S=C(CSc1ccccc1)Nc1cccc2ccccc12 | 48.4 µM | 55 µM (inactive) | 33.8 µM (inactive) | 16.4 µM (inactive) | 58.9 µM (inactive) | 72.1 µM (inactive) | 40.2 µM (inactive) | 42 µM (inactive) | 22.5 µM (inactive) | 56.2 µM (inactive) | 59 µM (inactive) | > 100 µM (inactive) | 77.1 µM (inactive) | 54.2 µM (inactive) | > 100 µM (inactive) | 28.4 µM (inactive) | 80.2 µM (inactive) |  | 35.6 µM (inactive) | 40.9 µM (inactive)
6 | N#CC1=C(N)N(c2ccccc2)C(c2ccccc2)C1(C#N)C#N (stereo not drawn) | 20.6 µM | 19.1 µM (inactive) | 14.8 µM (inactive) | 17.2 µM (inactive) | 19.7 µM (inactive) | 16.1 µM (inactive) | 6.05 µM (inactive) | 17.7 µM (inactive) | 17.1 µM (inactive) |  | 20.9 µM (inactive) | 16.7 µM (inactive) | 30 µM (inactive) | 21 µM (inactive) | 15 µM (inactive) | 14.7 µM (inactive) | 14.3 µM (inactive) | 16.4 µM (inactive) | 17.7 µM (inactive) | 17 µM (inactive)
7 | C[C@@H]1C[C@H]2[C@@H]3CCC4=CC(=O)C=C[C@]4(C)[C@@]3(Cl)[C@@H](Cl)C[C@]2(C)[C@@]1(O)C(=O)COP(=O)(O)O | > 100 µM | > 100 µM (inactive) | > 100 µM (inactive) | > 100 µM (inactive) | > 100 µM (inactive) | > 100 µM (inactive) | 7.41 µM (inactive) | > 100 µM (inactive) | 11.4 µM (inactive) | > 100 µM (inactive) | > 100 µM (inactive) | > 100 µM (inactive) | > 100 µM (inactive) | > 100 µM (inactive) | > 100 µM (inactive) |  | > 100 µM (inactive) | > 100 µM (inactive) | > 100 µM (inactive) | 
8 | C[N+]1(c2ccccc2)C=C(c2ccccc2)SC1=S (stereo not drawn) | > 100 µM | > 100 µM (inactive) | 41.7 µM (inactive) | 23.1 µM (inactive) | 18.1 µM (inactive) | > 100 µM (inactive) | 42.7 µM (inactive) | > 100 µM (inactive) | > 100 µM (inactive) |  | > 100 µM (inactive) | 7.33 µM (inactive) | 66.1 µM (inactive) | > 100 µM (inactive) | 1.87 µM (inactive) | > 100 µM (inactive) | > 100 µM (inactive) | > 100 µM (inactive) | > 100 µM (inactive) | > 100 µM (inactive)
9 | O=CC(O)C(O)C(O)C1CNC(=S)O1 (stereo not drawn) | > 100 µM | > 100 µM (inactive) | > 100 µM (inactive) | > 100 µM (inactive) | > 100 µM (inactive) | > 100 µM (inactive) | > 100 µM (inactive) | > 100 µM (inactive) | > 100 µM (inactive) | > 100 µM (inactive) | > 100 µM (inactive) | > 100 µM (inactive) | > 100 µM (inactive) | > 100 µM (inactive) | > 100 µM (inactive) | > 100 µM (inactive) | > 100 µM (inactive) |  | > 100 µM (inactive) | > 100 µM (inactive)
10 | CC(C)C12CCC3(CCC4C(C)(C(=O)O)CCCC4(C)C3C1)C(CN)C2 (stereo not drawn) | 31.9 µM | 35.4 µM (inactive) | 29.5 µM (inactive) | 17.7 µM (inactive) | 32.2 µM (inactive) | 42.3 µM (inactive) |  | 34.2 µM (inactive) | 25.9 µM (inactive) | 55.6 µM (inactive) | 35.4 µM (inactive) | 39.7 µM (inactive) | 62.8 µM (inactive) | 30.4 µM (inactive) | 35.2 µM (inactive) | 28.2 µM (inactive) | 58.7 µM (inactive) | 18.4 µM (inactive) | 45.6 µM (inactive) | 
11 | Cc1cc(N(CCCCl)CCCCl)ccc1/C=N/c1cccc(Cl)c1 | 13.6 µM | 12.3 µM (inactive) | 16.2 µM (inactive) | 11.5 µM (inactive) |  | 1.2 µM (inactive) | 7.26 µM (inactive) | < 0.01 µM (active) | 11.8 µM (inactive) |  |  | 17.4 µM (inactive) | 14.3 µM (inactive) | 18.5 µM (inactive) | 11.5 µM (inactive) |  | 14 µM (inactive) | < 0.01 µM (active) | 12 µM (inactive) | 13 µM (inactive)
